The term IC50 denotes the concentration at which inhibition is half-maximal.

In the first assay the test system is H2405 cells. Description: H2405 cell proliferation assay (1), resazurin, 96-well. The class given is cell-based. The settings on record: Homo sapiens, NCI-H2405, inhibition of cell proliferation. An outline of the steps:
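This is a resazurin viability readout (excitation 540 nm, emission 600 nm) taken 5-6 h after adding 440 μM resazurin solution, giving IC50 values.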
(Alamar Blue is a resazurin reagent that responds to reducing activity.)
For the compound `COC(=O)Nc1cc(-c2nccc(-c3cc(NC(=O)N4CCC(C(F)(F)F)C4)ccc3C)n2)ccn1` (centres unmarked) [Example 193], the IC50 lay within 1 to 10 µM.

In another assay the target is T1, B-Raf kinase (Homo sapiens, UniProt P15056).
T1 construct: GST (N); purchased Sigma
T1 sequence (P15056 416-766): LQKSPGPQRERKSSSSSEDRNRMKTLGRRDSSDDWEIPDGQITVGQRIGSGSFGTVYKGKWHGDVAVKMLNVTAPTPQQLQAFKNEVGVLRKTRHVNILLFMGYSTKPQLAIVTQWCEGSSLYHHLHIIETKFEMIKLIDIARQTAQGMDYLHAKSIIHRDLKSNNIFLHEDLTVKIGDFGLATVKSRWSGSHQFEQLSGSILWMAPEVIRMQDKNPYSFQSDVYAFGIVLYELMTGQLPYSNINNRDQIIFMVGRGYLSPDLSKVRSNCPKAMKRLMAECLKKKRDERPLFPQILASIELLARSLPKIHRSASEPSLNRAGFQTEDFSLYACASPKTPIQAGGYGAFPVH
Nature of the assay: Biochemical assay for B-Raf.1 (coupled pyruvate kinase/lactate dehydrogenase). The settings on record: read-out: BRAF.1 IC50. In short, it runs like this:
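Reaction rates over the 4–5 h window of a continuous 6 h, 30 °C read were converted to percent inhibition and fitted for IC50. B-Raf (0.13 nM) phosphorylated 30.1 nM MEK with 1 mM ATP; ADP coupled via PK/LDH to NADH loss at 340 nm, 1% DMSO final.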
Regarding `Cc1ccc(NC(=O)NCCC(C)(C)C)cc1-c1ccnc(N2CCOCC2)c1` [Example 18], the IC50 was at most 0.1 µM.

In the case of `COC(C)(C)CCNC(=O)Nc1ccc(C)c(-c2cc(-c3cnn(C)c3)nc(N3CCOCC3)c2)c1` [Example 38], the half-inhibitory concentration (IC50) was at most 0.1 µM.

On to `CC(=O)Nc1cc(-c2cc(-c3cc(NC(=O)NC4CC(C)(C)C4)c(F)cc3C)cc(OCCO)n2)ccn1` [Example 47], for which the IC50 was at most 0.1 µM.

As to `CC(=O)Nc1cc(-c2cc(-c3cc(NC(=O)Nc4ccc(C(F)(F)F)cc4)cnc3C)ccn2)ccn1` [Example 48], the IC50 is at most 0.1 µM.

Turning to `Cc1ccc(NC(=O)N[C@H]2C[C@](C)(F)C2)cc1-c1cc(OCCO)nc(-c2ccnc(NC(=O)CN(C)C)c2)c1` [Example 50], the 50% inhibitory concentration (IC50) is at most 0.1 µM.

With `CC(=O)Nc1cc(-c2cc(-c3cc(NC(=O)NCCC4(C)CC4)c(F)cc3C)cc(C3CC3)n2)ccn1` [Example 51], the concentration for half-maximal inhibition (IC50) was at most 0.1 µM.

As to `CC(=O)Nc1cc(-c2cc(-c3cc(NC(=O)NCC45CC(F)(C4)C5)c(F)cc3C)cc(OCCO)n2)ccn1` [Example 52], the half-maximal inhibitory concentration (IC50) is at most 0.1 µM.

As for `CC(=O)Nc1cc(-c2cc(-c3cc(NC(=O)NC4CCCCC4)c(F)cc3C)cc(OCCO)n2)ccn1` [Example 53], the IC50 is at most 0.1 µM.

For `CC(=O)Nc1cc(-c2cc(-c3cc(NC(=O)NCCC4(C(F)(F)F)CC4)c(F)cc3C)cc(C3CC3)n2)ccn1` [Example 54], the IC50 is at most 0.1 µM.

Regarding `CC(=O)Nc1cc(-c2cc(-c3cc(NC(=O)NCCC4(C)CC4)c(F)cc3C)cc(C)n2)ccn1` [Example 55], the concentration for half-maximal inhibition (IC50) is at most 0.1 µM.

Regarding `CC(=O)Nc1cc(-c2cc(-c3cc(NC(=O)NCCC4(C)CC4)ccc3C)cc(N3CCOCC3)n2)ccn1` [Example 57], the 50% inhibitory concentration (IC50) is at most 0.1 µM.

Take `CC(=O)Nc1cc(-c2cc(-c3cc(NC(=O)NCCC(C)(C)C#N)c(F)cc3C)cc(C3CC3)n2)ccn1` [Example 59]: the IC50 was at most 0.1 µM.

Consider `COC(C)(C)CCNC(=O)Nc1ccc(C)c(-c2cc(-c3ccnc(NC(C)=O)c3)n(C)c(=O)c2)c1` [Example 60], for which the IC50 was above 1 µM.

Regarding `Cc1ccc(NC(=O)N[C@H]2C[C@](C)(F)C2)cc1-c1cc(-c2ccnc(NC(=O)C3CC3)c2)nc(C2CC2)c1` [Example 61], the IC50 was at most 0.1 µM.

As to `CC(=O)Nc1cc(-c2cc(-c3cc(NC(=O)NC4CCC(F)(F)CC4)c(F)cc3C)cc(OCCO)n2)ccn1` [Example 63], the half-maximal inhibitory concentration (IC50) was at most 0.1 µM.

In the case of `Cc1ccc(NC(=O)Nc2ccnc(C(C)(C)C#N)c2)cc1-c1ccnc(-c2ccnc(C(=O)NC3CC3)c2)c1` [Example 68], the IC50 is at most 0.1 µM.

For `COC(C)(C)CCNC(=O)Nc1cc(-c2cccc(-c3ccnc(NC(C)=O)c3)c2)c(C)cc1F` [Example 71], the IC50 is at most 0.1 µM.

For the compound `CNC(=O)c1cc(-c2cccc(-c3cc(NC(=O)NCCC(C)(C)OC)c(F)cc3C)c2)ccn1` [Example 72], the IC50 was in the range of 0.1 to 0.5 µM.

With `COC(=O)Nc1cc(-c2nccc(-c3cc(NC(=O)N4CCC(C(F)(F)F)C4)ccc3C)n2)ccn1` (centres unmarked) [Example 193], the half-inhibitory concentration (IC50) is at most 0.1 µM.

As to `CNC(=O)c1cc(-c2cc(-c3cc(NC(=O)NC4CCCCC4)c(F)cc3C)cc(OCCO)n2)ccn1` [Example 205], the IC50 is at most 0.1 µM.

In another assay the test system is A375 cells. Nature of the assay: A375 cell proliferation assay (1), resazurin, 96-well. The settings on record: Homo sapiens, A-375, inhibition of cell proliferation. The class given is cell-based. In short, it runs like this:
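Viability was read by resazurin fluorescence at 540 nm excitation and 600 nm emission, using a 440 μM solution added for 5–6 h at the end of culture. IC50 came from the curve fit.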
As for `Cc1ccc(NC(=O)NCCC(C)(C)C)cc1-c1ccnc(N2CCOCC2)c1` [Example 18], the half-inhibitory concentration (IC50) lay in the range of 1 to 10 µM.

Turning to `COC(C)(C)CCNC(=O)Nc1ccc(C)c(-c2cc(-c3cnn(C)c3)nc(N3CCOCC3)c2)c1` [Example 38], the IC50 is 1 to 10 µM.

Consider `CC(=O)Nc1cc(-c2cc(-c3cc(NC(=O)NC4CC(C)(C)C4)c(F)cc3C)cc(OCCO)n2)ccn1` [Example 47], for which the concentration for half-maximal inhibition (IC50) is at most 0.1 µM.

With `CC(=O)Nc1cc(-c2cc(-c3cc(NC(=O)Nc4ccc(C(F)(F)F)cc4)cnc3C)ccn2)ccn1` [Example 48], the IC50 was 1 to 10 µM.

Take `Cc1ccc(NC(=O)N[C@H]2C[C@](C)(F)C2)cc1-c1cc(OCCO)nc(-c2ccnc(NC(=O)CN(C)C)c2)c1` [Example 50]: the IC50 lay in the range of 1 to 10 µM.

Consider `CC(=O)Nc1cc(-c2cc(-c3cc(NC(=O)NCCC4(C)CC4)c(F)cc3C)cc(C3CC3)n2)ccn1` [Example 51], for which the IC50 was 1 to 10 µM.

In the case of `CC(=O)Nc1cc(-c2cc(-c3cc(NC(=O)NCC45CC(F)(C4)C5)c(F)cc3C)cc(OCCO)n2)ccn1` [Example 52], the half-maximal inhibitory concentration (IC50) fell in the range of 1 to 10 µM.

Regarding `CC(=O)Nc1cc(-c2cc(-c3cc(NC(=O)NC4CCCCC4)c(F)cc3C)cc(OCCO)n2)ccn1` [Example 53], the IC50 is at most 0.1 µM.

Regarding `CC(=O)Nc1cc(-c2cc(-c3cc(NC(=O)NCCC4(C(F)(F)F)CC4)c(F)cc3C)cc(C3CC3)n2)ccn1` [Example 54], the IC50 is 0.1 to 0.5 µM.

Take `CC(=O)Nc1cc(-c2cc(-c3cc(NC(=O)NCCC4(C)CC4)c(F)cc3C)cc(C)n2)ccn1` [Example 55]: the concentration for half-maximal inhibition (IC50) was in the range of 1 to 10 µM.

Consider `CC(=O)Nc1cc(-c2cc(-c3cc(NC(=O)NCCC4(C)CC4)ccc3C)cc(N3CCOCC3)n2)ccn1` [Example 57], for which the concentration for half-maximal inhibition (IC50) lay in the range of 0.1 to 0.5 µM.

As for `CC(=O)Nc1cc(-c2cc(-c3cc(NC(=O)NCCC(C)(C)C#N)c(F)cc3C)cc(C3CC3)n2)ccn1` [Example 59], the IC50 lay in the range of 1 to 10 µM.

Consider `COC(C)(C)CCNC(=O)Nc1ccc(C)c(-c2cc(-c3ccnc(NC(C)=O)c3)n(C)c(=O)c2)c1` [Example 60], for which the IC50 fell in the range of 1 to 10 µM.

With `Cc1ccc(NC(=O)N[C@H]2C[C@](C)(F)C2)cc1-c1cc(-c2ccnc(NC(=O)C3CC3)c2)nc(C2CC2)c1` [Example 61], the IC50 was 1 to 10 µM.

For `CC(=O)Nc1cc(-c2cc(-c3cc(NC(=O)NC4CCC(F)(F)CC4)c(F)cc3C)cc(OCCO)n2)ccn1` [Example 63], the 50% inhibitory concentration (IC50) is at most 0.1 µM.

On to `Cc1ccc(NC(=O)Nc2ccnc(C(C)(C)C#N)c2)cc1-c1ccnc(-c2ccnc(C(=O)NC3CC3)c2)c1` [Example 68], for which the IC50 lay in the range of 1 to 10 µM.

Consider `COC(C)(C)CCNC(=O)Nc1cc(-c2cccc(-c3ccnc(NC(C)=O)c3)c2)c(C)cc1F` [Example 71], for which the IC50 is 1 to 10 µM.

As to `CNC(=O)c1cc(-c2cccc(-c3cc(NC(=O)NCCC(C)(C)OC)c(F)cc3C)c2)ccn1` [Example 72], the IC50 lay within 1 to 10 µM.

In the case of `COC(=O)Nc1cc(-c2nccc(-c3cc(NC(=O)N4CCC(C(F)(F)F)C4)ccc3C)n2)ccn1` (centres unmarked) [Example 193], the half-inhibitory concentration (IC50) lay within 1 to 10 µM.

Regarding `CNC(=O)c1cc(-c2cc(-c3cc(NC(=O)NC4CCCCC4)c(F)cc3C)cc(OCCO)n2)ccn1` [Example 205], the IC50 lay within 0.1 to 0.5 µM.

Values taken from patent US20230357179A1, “RAF KINASE INHIBITORS AND METHODS OF USE THEREOF” (Deciphera Pharmaceuticals, LLC, priority 2021, published 2023).
